Activity calls are given as the source filed them. No cut-off for these calls is given here.
Key:
MCF7 = assay: cells; assay type: functional, cell-based; settings: Homo sapiens
[1] = Selectivity index, ratio of IC50 for human HCT-116 cells to IC50 for human NAMALVA cells; assay type: functional
Histone deacetylase 1 [2] = molecular target: T1, Histone deacetylase 1 (Homo sapiens, UniProt Q13547); assay: Inhibition of full-length recombinant human HDAC1 expressed in baculovirus infected Sf9 cells using RHKK(Ac)AMC as substrate preincubated for 5 to 10 mins followed by substrate addition measured after 2 hrs by fluorescence based assay
U-937 [3] = assay: Cytotoxicity against human U-937 cells assessed as cell growth inhibition at 0.7 to 2.5 uM by MTT assay; assay type: functional, cell-based; settings: dose 0.7-2.5 µM, time lower 24.0 hrs, time upper […], TDE = time-dependent effect
U-937 [4] = assay: Inhibition of cell proliferation of human U-937 cells assessed as reduction in Ki-67 expression at IC50 measured after 48 hrs by flow cytometry; assay type: functional, cell-based
U-937 [5] = assay: Induction of apoptosis in human U-937 cells at IC50 measured after 48 hrs by flow cytometry; assay type: functional, cell-based
NAMALVA [6] = assay: Induction of apoptosis in human NAMALVA cells at IC50 measured after 48 hrs by flow cytometry; assay type: functional, cell-based
Histone deacetylase 1 [7] = molecular target: T1, Histone deacetylase 1; assay: Inhibition of HDAC1 in human Jurkat cells assessed as increase in acetyl-histone H3 level at IC50 incubated for 48 hrs by Western blot analysis; assay type: cell-based
Histone deacetylase 1 [8] = molecular target: T1, Histone deacetylase 1; assay: Inhibition of HDAC1 in human U-937 cells assessed as increase in acetyl-histone H3 level at IC50 incubated for 48 hrs by Western blot analysis; assay type: cell-based
Histone deacetylase 1 [9] = molecular target: T1, Histone deacetylase 1; assay: Inhibition of HDAC1 in human Jurkat cells assessed as increase in acetyl-alpha-tubulin level at IC50 incubated for 48 hrs by Western blot analysis; assay type: cell-based
Histone deacetylase 1 [10] = molecular target: T1, Histone deacetylase 1; assay: Inhibition of HDAC1 in human NAMALVA cells assessed as increase in acetyl-alpha-tubulin level at IC50 incubated for 48 hrs by Western blot analysis; assay type: cell-based
Histone deacetylase 1 [11] = molecular target: T1, Histone deacetylase 1; assay: Inhibition of HDAC1 in human U-937 cells assessed as increase in acetyl-alpha-tubulin level at IC50 incubated for 48 hrs by Western blot analysis; assay type: cell-based
[12] = molecular target: T2, Protein deacetylase HDAC6 (Homo sapiens) (UniProt Q9UBN7); assay: Inhibition of HDAC6 in human Jurkat cells assessed as increase in acetyl-histone H3 level at IC50 incubated for 48 hrs by Western blot analysis; assay type: cell-based
T2 sequence (whole entry): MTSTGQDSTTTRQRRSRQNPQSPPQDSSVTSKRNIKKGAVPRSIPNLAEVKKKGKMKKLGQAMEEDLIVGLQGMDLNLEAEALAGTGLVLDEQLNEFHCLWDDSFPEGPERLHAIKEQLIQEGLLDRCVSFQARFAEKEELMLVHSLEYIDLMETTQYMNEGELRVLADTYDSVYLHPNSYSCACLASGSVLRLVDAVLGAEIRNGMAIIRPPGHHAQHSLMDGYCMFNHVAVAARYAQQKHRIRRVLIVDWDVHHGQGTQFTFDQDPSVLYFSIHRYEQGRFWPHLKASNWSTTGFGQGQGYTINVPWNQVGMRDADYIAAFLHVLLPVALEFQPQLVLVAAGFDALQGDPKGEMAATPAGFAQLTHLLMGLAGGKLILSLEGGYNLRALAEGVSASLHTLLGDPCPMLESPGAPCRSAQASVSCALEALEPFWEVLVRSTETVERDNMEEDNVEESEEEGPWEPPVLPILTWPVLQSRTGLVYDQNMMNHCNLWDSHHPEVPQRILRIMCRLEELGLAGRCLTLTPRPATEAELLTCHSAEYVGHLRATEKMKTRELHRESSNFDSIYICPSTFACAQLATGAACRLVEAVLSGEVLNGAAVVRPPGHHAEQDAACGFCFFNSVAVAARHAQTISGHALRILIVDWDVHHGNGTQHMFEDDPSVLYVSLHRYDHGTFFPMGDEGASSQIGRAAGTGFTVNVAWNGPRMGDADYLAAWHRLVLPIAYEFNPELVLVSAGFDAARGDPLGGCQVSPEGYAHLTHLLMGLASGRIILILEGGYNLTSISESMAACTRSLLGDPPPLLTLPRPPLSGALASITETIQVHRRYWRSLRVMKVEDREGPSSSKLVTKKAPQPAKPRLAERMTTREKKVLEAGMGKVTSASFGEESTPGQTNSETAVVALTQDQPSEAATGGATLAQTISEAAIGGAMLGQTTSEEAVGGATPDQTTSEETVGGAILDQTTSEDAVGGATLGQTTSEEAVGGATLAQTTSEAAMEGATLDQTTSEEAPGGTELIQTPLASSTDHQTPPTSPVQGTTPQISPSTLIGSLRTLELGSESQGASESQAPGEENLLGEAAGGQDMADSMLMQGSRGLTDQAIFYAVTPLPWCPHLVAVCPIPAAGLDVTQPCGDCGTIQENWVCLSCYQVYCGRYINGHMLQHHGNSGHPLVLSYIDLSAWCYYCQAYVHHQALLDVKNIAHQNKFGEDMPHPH

[13] = molecular target: T2, Protein deacetylase HDAC6 (Homo sapiens); assay: Inhibition of HDAC6 in human NAMALVA cells assessed as increase in acetyl-histone H3 level at IC50 incubated for 48 hrs by Western blot analysis; assay type: cell-based
[14] = molecular target: T2, Protein deacetylase HDAC6 (Homo sapiens); assay: Inhibition of HDAC6 in human U-937 cells assessed as increase in acetyl-histone H3 level at IC50 incubated for 48 hrs by Western blot analysis; assay type: cell-based
[15] = molecular target: T2, Protein deacetylase HDAC6 (Homo sapiens); assay: Inhibition of HDAC6 in human Jurkat cells assessed as increase in acetyl-alpha-tubulin level at IC50 incubated for 48 hrs by Western blot analysis; assay type: cell-based
[16] = molecular target: T2, Protein deacetylase HDAC6 (Homo sapiens); assay: Inhibition of HDAC6 in human NAMALVA cells assessed as increase in acetyl-alpha-tubulin level at IC50 incubated for 48 hrs by Western blot analysis; assay type: cell-based
CYP2D6 = CYP2D6 (Homo sapiens, UniProt P10635); assay: Inhibition of CYP2D6 in liver microsomes (unknown origin) at 10 uM incubated for 10 mins relative to control; assay type: ADME, Microsome
[17] = Stability in human liver microsome assessed as half life at 1 uM measured for 60 mins by LC-MS/MS analysis; assay type: ADME; settings: liver microsomes
[18] = Stability in mouse liver microsome assessed as half life at 1 uM measured for 60 mins by LC-MS/MS analysis; assay type: ADME; settings: liver microsomes
[19] = Stability in human liver microsome assessed as intrinsic clearance at 1 uM measured for 60 mins by LC-MS/MS analysis; assay type: ADME; settings: liver microsomes, read-out: CLH
NAMALVA [20] = assay: cells; settings: Homo sapiens
[21] = molecular target: Tyrosine-protein kinase JAK1 (Homo sapiens) (UniProt P23458); assay: Inhibition of JAK1 (unknown origin) at 100 uM preincubated for 20 mins followed by 33P-ATP addition measured after 2 hrs by HotSpot kinase assay relative to control; settings: time 140.0 min
[22] = molecular target: High affinity nerve growth factor receptor (Homo sapiens) (UniProt P04629); assay: Inhibition of TRKa (unknown origin) at 100 uM preincubated for 20 mins followed by 33P-ATP addition measured after 2 hrs by HotSpot kinase assay relative to control; settings: time 140.0 min
Sequence of High affinity nerve growth factor receptor (Homo sapiens) (P04629 33-796 limits assumed): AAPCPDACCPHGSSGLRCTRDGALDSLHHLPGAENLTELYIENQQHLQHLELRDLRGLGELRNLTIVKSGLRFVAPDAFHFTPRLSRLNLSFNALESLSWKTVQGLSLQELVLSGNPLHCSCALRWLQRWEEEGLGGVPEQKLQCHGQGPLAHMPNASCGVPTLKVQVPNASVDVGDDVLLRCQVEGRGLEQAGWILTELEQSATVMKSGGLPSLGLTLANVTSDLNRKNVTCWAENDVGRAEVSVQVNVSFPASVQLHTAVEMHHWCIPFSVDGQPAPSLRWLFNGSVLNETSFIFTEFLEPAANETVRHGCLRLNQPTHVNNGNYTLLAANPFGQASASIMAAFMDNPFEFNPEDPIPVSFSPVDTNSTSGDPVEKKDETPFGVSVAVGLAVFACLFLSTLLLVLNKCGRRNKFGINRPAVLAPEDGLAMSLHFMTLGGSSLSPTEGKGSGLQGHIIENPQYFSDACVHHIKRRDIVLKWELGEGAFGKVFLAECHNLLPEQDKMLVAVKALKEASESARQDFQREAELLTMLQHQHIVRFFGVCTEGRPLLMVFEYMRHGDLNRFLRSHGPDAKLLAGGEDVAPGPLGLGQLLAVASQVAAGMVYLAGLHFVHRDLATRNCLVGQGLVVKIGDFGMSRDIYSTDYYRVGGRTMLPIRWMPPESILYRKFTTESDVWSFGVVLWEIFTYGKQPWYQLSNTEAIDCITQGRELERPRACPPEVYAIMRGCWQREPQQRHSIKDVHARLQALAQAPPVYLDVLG

T1 sequence (Q13547 whole entry): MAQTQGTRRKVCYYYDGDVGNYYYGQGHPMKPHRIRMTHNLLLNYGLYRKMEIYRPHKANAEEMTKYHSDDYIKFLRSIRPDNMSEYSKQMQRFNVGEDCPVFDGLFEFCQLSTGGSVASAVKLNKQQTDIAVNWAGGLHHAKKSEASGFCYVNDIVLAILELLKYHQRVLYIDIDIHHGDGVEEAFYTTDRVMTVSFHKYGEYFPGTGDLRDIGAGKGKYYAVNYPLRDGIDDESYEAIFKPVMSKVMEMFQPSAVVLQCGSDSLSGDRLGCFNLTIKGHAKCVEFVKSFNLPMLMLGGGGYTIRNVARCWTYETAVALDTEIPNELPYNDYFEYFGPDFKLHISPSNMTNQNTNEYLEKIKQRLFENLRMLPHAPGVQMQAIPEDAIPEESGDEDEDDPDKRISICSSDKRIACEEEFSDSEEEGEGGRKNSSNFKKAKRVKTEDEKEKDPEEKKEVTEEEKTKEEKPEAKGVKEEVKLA
Sequence of CYP2D6 (P10635 whole entry): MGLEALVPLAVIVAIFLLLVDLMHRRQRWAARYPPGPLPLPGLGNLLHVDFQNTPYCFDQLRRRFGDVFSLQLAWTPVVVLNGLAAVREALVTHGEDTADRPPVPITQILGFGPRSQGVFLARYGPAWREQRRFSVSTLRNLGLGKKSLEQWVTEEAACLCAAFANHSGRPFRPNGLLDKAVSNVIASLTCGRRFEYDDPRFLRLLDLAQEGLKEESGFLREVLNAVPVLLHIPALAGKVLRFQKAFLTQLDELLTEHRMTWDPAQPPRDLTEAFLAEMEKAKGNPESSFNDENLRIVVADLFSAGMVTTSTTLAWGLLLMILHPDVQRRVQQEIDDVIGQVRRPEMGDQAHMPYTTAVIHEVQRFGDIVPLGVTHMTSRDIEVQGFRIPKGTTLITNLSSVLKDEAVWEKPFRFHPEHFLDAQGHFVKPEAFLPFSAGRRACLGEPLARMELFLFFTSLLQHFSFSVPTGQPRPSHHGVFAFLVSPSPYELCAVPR
Sequence of Tyrosine-protein kinase JAK1 (Homo sapiens) (P23458 whole entry): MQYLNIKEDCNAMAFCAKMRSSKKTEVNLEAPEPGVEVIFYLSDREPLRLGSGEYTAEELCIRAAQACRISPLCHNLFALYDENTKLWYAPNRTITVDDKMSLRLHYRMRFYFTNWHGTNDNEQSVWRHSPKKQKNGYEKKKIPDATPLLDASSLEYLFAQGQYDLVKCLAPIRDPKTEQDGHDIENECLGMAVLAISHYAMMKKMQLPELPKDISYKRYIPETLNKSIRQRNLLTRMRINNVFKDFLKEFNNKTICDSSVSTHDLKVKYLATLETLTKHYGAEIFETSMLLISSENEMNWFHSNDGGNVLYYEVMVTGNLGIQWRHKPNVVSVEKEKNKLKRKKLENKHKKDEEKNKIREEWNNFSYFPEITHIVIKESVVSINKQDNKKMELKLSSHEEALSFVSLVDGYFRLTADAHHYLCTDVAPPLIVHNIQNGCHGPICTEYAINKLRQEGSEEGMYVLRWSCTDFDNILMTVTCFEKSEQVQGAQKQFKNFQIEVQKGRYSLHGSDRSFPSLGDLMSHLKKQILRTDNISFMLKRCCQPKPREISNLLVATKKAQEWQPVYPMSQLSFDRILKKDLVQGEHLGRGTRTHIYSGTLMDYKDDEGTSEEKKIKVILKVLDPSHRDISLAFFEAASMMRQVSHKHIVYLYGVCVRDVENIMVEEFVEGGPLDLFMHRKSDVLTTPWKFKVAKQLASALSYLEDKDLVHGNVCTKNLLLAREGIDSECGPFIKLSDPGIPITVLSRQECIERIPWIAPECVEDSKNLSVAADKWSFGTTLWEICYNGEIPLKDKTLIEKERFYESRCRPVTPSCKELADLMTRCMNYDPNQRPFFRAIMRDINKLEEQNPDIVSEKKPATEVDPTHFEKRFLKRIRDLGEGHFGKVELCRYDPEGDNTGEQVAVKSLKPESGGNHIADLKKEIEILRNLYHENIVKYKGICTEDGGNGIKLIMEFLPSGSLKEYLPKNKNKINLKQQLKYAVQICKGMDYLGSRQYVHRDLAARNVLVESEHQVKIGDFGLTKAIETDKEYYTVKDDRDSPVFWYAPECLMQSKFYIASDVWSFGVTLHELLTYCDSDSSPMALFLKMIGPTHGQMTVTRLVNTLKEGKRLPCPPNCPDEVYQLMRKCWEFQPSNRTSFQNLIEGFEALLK

| SMILES | IC50 (MCF7) | Ratio IC50 [1] | IC50 (Histone deacetylase 1 [2]) | inhibition (U-937 [4]) | Activity (U-937 [5]) | Activity (NAMALVA [6]) | inhibition (Histone deacetylase 1 [7]) | inhibition (Histone deacetylase 1 [8]) | inhibition (Histone deacetylase 1 [9]) | inhibition (Histone deacetylase 1 [10]) | inhibition (Histone deacetylase 1 [11]) | inhibition [12] | inhibition [13] | inhibition [14] | inhibition [15] | inhibition [16] | inhibition at 10 min, 10 µM (CYP2D6) | half-life at 1 µM [17] | half-life at 1 µM [18] | microsomal CLint at 1 µM [19] | other results |
| --- | --- | --- | --- | --- | --- | --- | --- | --- | --- | --- | --- | --- | --- | --- | --- | --- | --- | --- | --- | --- | --- |
| COc1ccc(Nc2ncnc3c2ncn3Cc2ccc(C(=O)NO)cc2)cc1 | 19.5 µM | 83 | 0.118 µM | Active | Active | Active | Active | Active | Active | Active | Active | Active | Active | Active | Active | Active | 10% | > 120 min | 50 min | < 6 µL/min/mg | inhibition (U-937 [3]): Tde; IC50 (NAMALVA [20]): 0.1 µM |
| O=C(NO)c1ccc(Cn2cnc3c(Nc4ccc(F)c(Cl)c4)ncnc32)cc1 | 9.3 µM | 83 | 0.189 µM | Active | Active | Active | Active | Active | Active | Active | Active | Active | Active | Active | Active | Active | 10% | > 120 min | 35 min | < 6 µL/min/mg | inhibition [21]: 63.2%; inhibition [22]: 99.9%; IC50 (NAMALVA [20]): 0.04 µM |

Reference: ChEMBL document CHEMBL5532651, “HDAC specificity and kinase off-targeting by purine-benzohydroxamate anti-hematological tumor agents” (Eur J Med Chem, 2024)
